Assay [1] concerns the target T1, human NK1 receptor (Homo sapiens, UniProt P25103).
T1 construct: IM-9 human lymphoblasts specifically expressing the NK1 receptor; endogenous in cells; host or cells: IM-9 human lymphoblasts
In words: Affinity for the human NK1 receptor on IM-9 human lymphoblasts. Format: binding. The text has this:
(§1) The affinity for the human NK1 and NK2 receptors was studied on IM-9 human lymphoblasts specifically expressing the NK1 receptor as described by D. G. Payan et al. (J. Biol. Chem. 1986, 261, 14321-14329) and on CHO-K1 cells transfected with the NK2 receptor according to the CellPhect transfection kit (Pharmacia).

Assay [2] has as its target T2, human NK2 receptor (Homo sapiens, UniProt P21452).
T2 construct: expressed in transfected cells; host or cells: CHO-K1
T2 sequence (P21452 1-398): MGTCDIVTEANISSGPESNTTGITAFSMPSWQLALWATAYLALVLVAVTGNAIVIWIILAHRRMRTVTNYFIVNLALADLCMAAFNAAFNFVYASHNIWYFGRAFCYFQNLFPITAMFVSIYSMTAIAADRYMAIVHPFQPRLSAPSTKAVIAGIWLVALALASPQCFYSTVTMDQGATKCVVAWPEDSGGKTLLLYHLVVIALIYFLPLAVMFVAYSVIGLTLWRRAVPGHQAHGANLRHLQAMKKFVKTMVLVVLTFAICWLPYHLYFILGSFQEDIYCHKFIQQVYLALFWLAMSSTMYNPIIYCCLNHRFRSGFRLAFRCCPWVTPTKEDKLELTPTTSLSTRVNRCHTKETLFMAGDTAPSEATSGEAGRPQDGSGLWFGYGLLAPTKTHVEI
Put plainly: Affinity for the human NK2 receptor on transfected CHO-K1 cells. The assay is classed as binding. The conditions noted are these: CHO-K1 cells transfected with the NK2 receptor.
From the text: as §1

Assay [3] has as its system capsaicin-induced plasma extravasation. Put plainly: Inhibition of capsaicin-induced plasma extravasation in guinea pig bronchi. The assay is classed as in vivo, guinea pigs. Particulars: iv 5 minutes before capsaicin 200 μg/kg iv, Evans blue. The method, then:
The effect of the compounds on the plasma extravasation caused by intravenous injection of capsaicin (200 μg/kg) in guinea pigs was evaluated in the bronchi according to the method described by Robineau et al (Eur. J. Pharmacol., 1995, 294, 677-684). The accumulation in the bronchi of Evans blue injected IV 1 minute before capsaicin was quantified by spectrophotometry after extraction of the dye with acetone. The inhibitory activity of the compounds via the intravenous route 5 minutes before capsaicin was expressed as a 50% inhibitory dose in comparison to a control group (8 animals per group).

Assay [4] relates to substance P-induced bronchoconstriction. In words: Inhibition of substance P-induced bronchoconstriction in guinea pigs. The assay is classed as in vivo. The protocol: The study is carried out on male Hartley guinea pigs (Charles River) weighing 300 to 400 g on average. The study is carried out on anesthetized (ethyl carbamate 1.5 g/kg) and Flaxedilcurarized (0.2 mg/kg iv) animals ventilated at a rate of 60 per minute and a volumetric flow of 10ml/kg. The animals are pretreated with pyrilamine (1 mg/kg iv) and propranolol (1 mg/kg iv).
The criterion of judgment of bronchoconstriction is the increase in tracheal insufflation pressure (TIP) induced by the iv injection of substance P at a dose of 2 nM/kg iv, each animal being its own control. Injection of the test product is performed with reference to the time TO of the injection of the product.
The results are expressed as a dose inhibiting substance P-induced bronchoconstriction by 50%, this percentage being calculated according to the following formula: (ΔTIP before product-ΔTIP after product)/ΔTIP before product (expressed as a percentage).

The target of assay [5] is T3, NK1 receptors (Oryctolagus cuniculus, UniProt G1SEI7).
T3 construct: two isolated preparations of smooth muscle were used: the rabbit vena cava (RVC); from tissue; host or cells: rabbit vena cava
In words: Isolated smooth muscle: rabbit vena cava (RVC) contraction, antagonist pA2. Format: biochemical. An excerpt: (§2) In order to evaluate the functional activity of the compounds of the invention as neurokinin antagonists, two isolated preparations of smooth muscle were used: the rabbit vena cava (RVC) and the rabbit pulmonary artery without endothelium (RPA), the contractile responses of which are mediated, respectively, by the NK1 and NK2 receptors as shown by D. Jukic et al. (Life Sci. 1991, 49, 1463-1469).
(§3) The antagonist power of the compounds of the invention was expressed in the form of pA2 as defined by O. Arunlakshana and H. O. Schild (Brit. J. Pharmacol. 1959, 14, 48-58).

Assay [6] addresses T4, NK2 receptors (Oryctolagus cuniculus, UniProt P79218).
T4 construct: the rabbit pulmonary artery without endothelium (RPA); from tissue; host or cells: rabbit pulmonary artery without endothelium
T4 sequence (P79218 1-384): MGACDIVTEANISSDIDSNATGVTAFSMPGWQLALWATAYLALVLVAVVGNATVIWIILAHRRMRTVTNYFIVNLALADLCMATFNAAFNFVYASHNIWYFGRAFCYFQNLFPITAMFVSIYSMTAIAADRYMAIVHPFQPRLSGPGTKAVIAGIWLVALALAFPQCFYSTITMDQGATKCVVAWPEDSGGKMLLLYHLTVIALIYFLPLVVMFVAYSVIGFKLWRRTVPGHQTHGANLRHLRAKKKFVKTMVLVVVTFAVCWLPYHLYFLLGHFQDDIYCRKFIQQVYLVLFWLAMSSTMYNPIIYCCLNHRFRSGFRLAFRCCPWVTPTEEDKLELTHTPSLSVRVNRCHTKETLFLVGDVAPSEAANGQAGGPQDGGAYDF
In words: Isolated smooth muscle: rabbit pulmonary artery without endothelium (RPA) contraction, antagonist pA2. The assay is classed as biochemical.
From the text: as §2, §3

T1 sequence (P25103 whole entry): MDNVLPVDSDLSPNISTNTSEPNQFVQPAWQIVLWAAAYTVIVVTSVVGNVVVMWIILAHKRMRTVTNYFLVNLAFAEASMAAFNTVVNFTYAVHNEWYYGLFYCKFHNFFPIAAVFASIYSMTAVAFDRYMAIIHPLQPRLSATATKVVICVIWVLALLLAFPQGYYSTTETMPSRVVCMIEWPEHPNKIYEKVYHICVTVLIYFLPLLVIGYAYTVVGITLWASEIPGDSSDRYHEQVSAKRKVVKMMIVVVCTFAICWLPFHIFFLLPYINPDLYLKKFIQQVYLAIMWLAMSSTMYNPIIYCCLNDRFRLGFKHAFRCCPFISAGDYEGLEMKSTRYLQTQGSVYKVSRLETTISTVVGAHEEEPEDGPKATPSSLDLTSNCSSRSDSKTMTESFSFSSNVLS
T3 sequence (G1SEI7 1-407): as the sequence (P25103 whole entry) above, with S12F, N189D, P369A, D371E, T376N, C386G, D391N, S402Y, V405M counted along it

As for `O=C(OCc1cc(C(F)(F)F)cc(C(F)(F)F)c1)[C@H](Cc1c[nH]c2ccccc12)NC(=O)[C@@H]1C[C@@H](O)CN1C(=O)c1cn(CCCCc2nnn[nH]2)c2ccccc12.[K]` [Example 1, {1-[4-(1H-Tetrazol-5-yl)butyl]-3-indolyl}carbonyl-Hyp-Trp-OBzl(3,5-ditrifluoromethyl) potassium salt], the Ki (in general, a dissociation constant, usually derived from enzyme kinetics or from competition with a known ligand) in assay [1] worked out at 2.4 nM; in assay [2], 4200 nM. Also, in assay [3], the “ED50, inhibition of capsaicin-induced plasma extravasation” value was determined as 0.026 mg/kg. Besides, in assay [4] (anesthetized guinea pigs, substance P 2 nM/kg iv, tracheal insufflation pressure), the “ED50, dose inhibiting substance P-induced bronchoconstriction by 50%” value is on record as 0.06 mg/kg. In addition, in assay [4] (substance P-induced bronchoconstriction, guinea pigs), the “Potency relative to compound of Example 1 of Patent EP 684,257” value is “two and a half times as potent”. The “pA2 in relation to the NK1 receptors” value in assay [5] is 8.9. Further, the “pA2 in relation to the NK2 receptors” value in assay [6] is 5.2.

(Values after patent publication US5708016A, “Pseudopeptides derived from neurokinins” (Adir et Compagnie, priority 1996, dated 1998).)
